According to the NIST ThermoML archive (doi:10.1016/j.jct.2014.05.020):

Test: excess molar enthalpy (molar enthalpy of mixing); xn = mol fraction of the nth substance listed
Details: Flow calorimetry

C1CCCCC1 [cyclohexane] + c1ccccc1
Details | excess molar enthalpy [kcal/mol]
498.2 K, 15000 kPa, Liquid, x2 = 0.9161 | 0.0262
523.2 K, 5000 kPa, Liquid, x2 = 0.1189 | 0.0458
523.2 K, 5000 kPa, Liquid, x2 = 0.1765 | 0.0644
523.2 K, 5000 kPa, Liquid, x2 = 0.233 | 0.0798
523.2 K, 5000 kPa, Liquid, x2 = 0.3424 | 0.101
523.2 K, 5000 kPa, Liquid, x2 = 0.4475 | 0.112
523.2 K, 5000 kPa, Liquid, x2 = 0.5485 | 0.114
523.2 K, 5000 kPa, Liquid, x2 = 0.6457 | 0.105
523.2 K, 5000 kPa, Liquid, x2 = 0.7392 | 0.0877
523.2 K, 5000 kPa, Liquid, x2 = 0.8293 | 0.0619
523.2 K, 5000 kPa, Liquid, x2 = 0.8732 | 0.0463
523.2 K, 5000 kPa, Liquid, x2 = 0.9162 | 0.0303
523.2 K, 5000 kPa, Liquid, x2 = 0.9585 | 0.0173
523.2 K, 15000 kPa, Liquid, x2 = 0.1188 | 0.0387
523.2 K, 15000 kPa, Liquid, x2 = 0.1763 | 0.0539
523.2 K, 15000 kPa, Liquid, x2 = 0.2327 | 0.0667
523.2 K, 15000 kPa, Liquid, x2 = 0.3421 | 0.0855
523.2 K, 15000 kPa, Liquid, x2 = 0.4471 | 0.0946
523.2 K, 15000 kPa, Liquid, x2 = 0.5482 | 0.0951
523.2 K, 15000 kPa, Liquid, x2 = 0.6454 | 0.088
523.2 K, 15000 kPa, Liquid, x2 = 0.7389 | 0.0732
523.2 K, 15000 kPa, Liquid, x2 = 0.8291 | 0.0516
523.2 K, 15000 kPa, Liquid, x2 = 0.873 | 0.0391
523.2 K, 15000 kPa, Liquid, x2 = 0.9161 | 0.025
523.2 K, 15000 kPa, Liquid, x2 = 0.9584 | 0.0128
523.2 K, 25000 kPa, Liquid, x2 = 0.1187 | 0.0369
523.2 K, 25000 kPa, Liquid, x2 = 0.1762 | 0.0516
523.2 K, 25000 kPa, Liquid, x2 = 0.2325 | 0.0643
523.2 K, 25000 kPa, Liquid, x2 = 0.3418 | 0.0817
523.2 K, 25000 kPa, Liquid, x2 = 0.4469 | 0.0899
523.2 K, 25000 kPa, Liquid, x2 = 0.5479 | 0.0903
523.2 K, 25000 kPa, Liquid, x2 = 0.6451 | 0.0836
523.2 K, 25000 kPa, Liquid, x2 = 0.7388 | 0.0694
523.2 K, 25000 kPa, Liquid, x2 = 0.829 | 0.0483
523.2 K, 25000 kPa, Liquid, x2 = 0.8729 | 0.0367
523.2 K, 25000 kPa, Liquid, x2 = 0.916 | 0.0234
523.2 K, 25000 kPa, Liquid, x2 = 0.9584 | 0.0123
573.2 K, 15000 kPa, Fluid (supercritical or subcritical phases), x2 = 0.1188 | 0.0358
573.2 K, 15000 kPa, Fluid (supercritical or subcritical phases), x2 = 0.1763 | 0.0503
573.2 K, 15000 kPa, Fluid (supercritical or subcritical phases), x2 = 0.2327 | 0.0611
573.2 K, 15000 kPa, Fluid (supercritical or subcritical phases), x2 = 0.3421 | 0.0788
573.2 K, 15000 kPa, Fluid (supercritical or subcritical phases), x2 = 0.4471 | 0.088
573.2 K, 15000 kPa, Fluid (supercritical or subcritical phases), x2 = 0.5482 | 0.0891
573.2 K, 15000 kPa, Fluid (supercritical or subcritical phases), x2 = 0.6454 | 0.0821
573.2 K, 15000 kPa, Fluid (supercritical or subcritical phases), x2 = 0.7389 | 0.0687
573.2 K, 15000 kPa, Fluid (supercritical or subcritical phases), x2 = 0.8291 | 0.0493
573.2 K, 15000 kPa, Fluid (supercritical or subcritical phases), x2 = 0.873 | 0.0361
573.2 K, 15000 kPa, Fluid (supercritical or subcritical phases), x2 = 0.9161 | 0.025
573.2 K, 15000 kPa, Fluid (supercritical or subcritical phases), x2 = 0.9584 | 0.012
573.2 K, 25000 kPa, Fluid (supercritical or subcritical phases), x2 = 0.1187 | 0.0333
573.2 K, 25000 kPa, Fluid (supercritical or subcritical phases), x2 = 0.1762 | 0.0474
573.2 K, 25000 kPa, Fluid (supercritical or subcritical phases), x2 = 0.2325 | 0.0572
573.2 K, 25000 kPa, Fluid (supercritical or subcritical phases), x2 = 0.3418 | 0.0738
573.2 K, 25000 kPa, Fluid (supercritical or subcritical phases), x2 = 0.4469 | 0.0825
573.2 K, 25000 kPa, Fluid (supercritical or subcritical phases), x2 = 0.5479 | 0.0834
573.2 K, 25000 kPa, Fluid (supercritical or subcritical phases), x2 = 0.6451 | 0.0767
573.2 K, 25000 kPa, Fluid (supercritical or subcritical phases), x2 = 0.7388 | 0.0641
573.2 K, 25000 kPa, Fluid (supercritical or subcritical phases), x2 = 0.829 | 0.045
573.2 K, 25000 kPa, Fluid (supercritical or subcritical phases), x2 = 0.8729 | 0.0332
573.2 K, 25000 kPa, Fluid (supercritical or subcritical phases), x2 = 0.916 | 0.02
573.2 K, 25000 kPa, Fluid (supercritical or subcritical phases), x2 = 0.9584 | 0.00954
